The source of these data is patent US8476197B2, “Aminopropenoates as fungicides” (priority 2009, dated 2013).

Marks after values point to notes of the source that are not given here.

The conditions of one data set: pH 2.3.
What is called Log P is a log measure of how a compound divides between an organic and an aqueous phase. Take `CCOC(=O)C(C#N)=C(NC(C)C(C)C)c1cccnc1C(C)=NO` (stereo not shown) [Compound 985]: the “Log P” value was determined as 2.69.

Turning to `C=Cc1ncccc1C(NC(C)C(C)C)=C(C#N)C(=O)OCC` (stereo not shown) [Compound 976], the “Log P” value was 3.24.

On to `CCOC(=O)C(C#N)=C(NC(C)CSC)c1cccnc1OC` (stereo not shown) [Compound 687], for which the “Log P” value was determined as 2.96.

With `CC(C)C(C)NC(=C(C#N)C(=O)NC1COC1)c1cccnc1Cl` (stereo not shown) [Compound 1455], the “Log P” value was 2.24.

In the case of `COC(=O)C(C#N)=C(Nc1cccc(SC)c1)c1cccnc1Cl` [Compound 339], the “Log P” value was 3.04.

The same data set, now with this note: pH 2.7.
Turning to `CCOC(=O)C(C#N)=C(NC(C)C(C)C)c1ccsc1Br` (stereo not shown) [Compound 945], the “Log P” value was 4.1^[a].

Turning to `CCOC(=O)C(C#N)=C(NCc1nccs1)c1cn(C)nc1C(F)F` [Compound 68], the “Log P” value was 2^[a].

With `CCOC(=O)C(C#N)=C(NCc1ccccc1SC)c1cccnc1Cl` [Compound 1171], the “Log P” value was 3.37^[a].

Take `CCCC(CC)NC(=C(C#N)C(=O)OCC)c1cccnc1Cl` (stereo not shown) [Compound 1434]: the “Log P” value is 3.8^[a].

As for `CCOC(=O)C(C#N)=C(NC(C)c1ccc(Cl)cc1)c1c(C)nn(C)c1Cl` (stereo not shown) [Compound 367], the lipophilicity (Log P) was 3.8^[a].

On to `CCOC(=O)C(C#N)=C(NC1CCC1)c1ccncc1F` [Compound 804], for which the “Log P” value is 2.66^[a].

On to `CCOC(=O)C(C#N)=C(Nc1ccc(SC)cc1)c1ccsc1Br` [Compound 524], for which the “Log P” value was 4.01^[a].

With `CCOC(=O)C(C#N)=C(NC(C)Cc1c[nH]c2ccccc12)c1sccc1C(F)(F)F` (stereo not shown) [Compound 108], the “Log P” value is 3.94^[a].

`COC(=O)C(C#N)=C(NC(C)c1ccc(Cl)cc1Cl)c1cccnc1Cl` (stereo not shown) [Compound 374]: the “Log P” value was 3.73^[a].

For `CCOC(=O)C(C#N)=C(Nc1cccc(SC)c1)c1cccnc1Cl` [Compound 1266], the “Log P” value was 3.42^[a].

On to `CCOC(=O)C(C#N)=C(NC(C)c1ccccc1)c1sccc1C(F)(F)F` (mixture of isomers) [Compound 440], for which the “Log P” value is 4.16^[a].

For the molecule `CCOC(=O)C(C#N)=C(NC1(C#N)CC1)c1cn(C)nc1C(F)F` [Compound 1132], the “Log P” value is 2.1^[a].

For `CCOC(=O)C(C#N)=C(NC(C)c1nc(C)cs1)c1sccc1C(F)(F)F` (racemic) [Compound 174], the “Log P” value was 3.58^[a].

Turning to `CCOC(=O)C(C#N)=C(NC(C)C(=O)NC)c1cn(C)nc1C(F)F` (stereo not shown) [Compound 599], the “Log P” value was 1.66^[a].

Turning to `CCOC(=O)C(C#N)=C(NCc1ccccc1SC)c1sccc1Br` [Compound 458], the “Log P” value was 4.01^[a].

On to `CCOC(=O)C(C#N)=C(NC(C)CF)c1cn(C)cc1C(F)(F)F` (stereo not shown) [Compound 752], for which the lipophilicity (Log P) is 2.95^[a].

Turning to `COCCNC(=O)C(C#N)=C(NC(C)C(C)C)c1cccnc1Cl` (stereo not shown) [Compound 1492], the “Log P” value was 2.73^[a].

For the molecule `COC(=O)C(C#N)=C(NC1CCC(C)C(C)C1)c1cccnc1Cl` (stereo not shown) [Compound 1070], the “Log P” value was 3.73^[a].

As to `CCOC(=O)C(C#N)=C(NCc1ccccn1)c1ccsc1I` [Compound 166], the “Log P” value was 2.56^[a].

As to `C#CC1(NC(=C(C#N)C(=O)OC)c2cccnc2Cl)CCCCC1` [Compound 1088], the “Log P” value is 2.99^[a].

On to `CCOC(=O)C(C#N)=C(NC(C)c1ccc(Cl)cc1)c1c(C)nn(C)c1F` (stereo not shown) [Compound 352], for which the “Log P” value was 3.62^[a].

Regarding `COC(=O)C(C#N)=C(NC(C)(C)c1ccc(OC)cc1)c1cccnc1Cl` [Compound 386], the “Log P” value is 3.02^[a].

Consider `CCOC(=O)C(C#N)=C(NC(C)c1nccs1)c1cn(C)nc1C(C)(F)F` (stereo not shown) [Compound 312], for which the “Log P” value is 2.62^[a].

For `CCOC(=O)C(C#N)=C(NC(C)c1nc(C)c(C)s1)c1cn(C)nc1C(F)F` (racemic) [Compound 33], the “Log P” value is 2.96^[a].

For `CCOC(=O)C(C#N)=C(NC(C)C(C)C)c1sccc1Br` (stereo not shown) [Compound 941], the “Log P” value was 4.12^[a].

As for `CCCC(COCC)NC(=C(C#N)C(=O)OC)c1cccnc1Cl` (stereo not shown) [Compound 626], the “Log P” value was 3.15^[a].

Take `CCOC(=O)C(C#N)=C(NC1(c2c(F)cccc2F)CC1)c1cn(C)nc1C(F)(F)F` [Compound 530]: the “Log P” value was 3.48^[a].

Turning to `CCOC(=O)C(C#N)=C(NC1(c2c(F)cccc2F)CC1)c1cc(Cl)sc1Cl` [Compound 501], the “Log P” value was 4.62^[a].

As for `CCOC(=O)C(C#N)=C(Nc1cccc(Cl)c1)c1sccc1Br` [Compound 459], the lipophilicity (Log P) is 4.09^[a].

Consider `CCOC(=O)C(C#N)=C(Nc1ccccc1OC(C)C)c1sccc1C(F)(F)F` [Compound 460], for which the “Log P” value is 4.54^[a].

Turning to `CCOC(=O)C(C#N)=C(NC(C)C(=O)NC1CCCCC1)c1cc(Cl)sc1Cl` (stereo not shown) [Compound 1631], the “Log P” value was 3.83^[a].

In the case of `CCOC(=O)C(C#N)=C(NCc1nccs1)c1ccsc1Br` [Compound 104], the “Log P” value is 2.66^[a].

Take `CCOC(=O)C(C#N)=C(NC(C)C(N)=O)c1ncc(Cl)cc1Cl` (stereo not shown) [Compound 699]: the “Log P” value is 2.01^[a].

Take `CCOC(=O)C(C#N)=C(NC(C)c1cccc2ccccc12)c1ncc(Cl)cc1Cl` (stereo not shown) [Compound 2]: the “Log P” value is 4.65^[a].

As to `CCOC(=O)C(C#N)=C(NC(C)CF)c1cn(C)nc1C(F)(F)F` (stereo not shown) [Compound 751], the “Log P” value is 2.72^[a].

Turning to `COC(=O)C(C#N)=C(NC(C)c1ccccc1)c1sc(C)nc1C(F)(F)F` (mixture of isomers) [Compound 444], the “Log P” value was 3.62^[a].

Consider `COC(=O)CNC(=O)C(C#N)=C(NC(C)c1nccs1)c1cccnc1Cl` (stereo not shown) [Compound 1596], for which the “Log P” value is 1.9^[a].

With `CCOC(=O)C(C#N)=C(NC(C)C(=O)NC)c1cccnc1C(F)F` (stereo not shown) [Compound 724], the “Log P” value is 1.62^[a].

Regarding `COC(=O)C(C#N)=C(NCc1nc(C(F)(F)F)cs1)c1sc(C)nc1C(F)(F)F` [Compound 185], the “Log P” value was 3.06^[a].

For `CCOC(=O)C(C#N)=C(Nc1ccccc1SC(F)(F)C(F)(F)F)c1cc(C)oc1C` [Compound 415], the “Log P” value is 4.7^[a].

For `CCOC(=O)C(C#N)=C(NCc1nccs1)c1sccc1C(F)(F)F` [Compound 95], the lipophilicity (Log P) is 2.82^[a].

Turning to `CCOC(=O)C(C#N)=C(NC(C)CC(C)C)c1sc(C)nc1C(F)(F)F` (racemic) [Compound 784], the “Log P” value was 4.29^[a].

In the case of `CC(NC(=C(C#N)C(=O)N1CCOCC1)c1cccnc1Cl)c1nccs1` (stereo not shown) [Compound 1595], the “Log P” value was 1.84^[a].

Regarding `CCOC(=O)C(C#N)=C(NC(C)C1CCCC1)c1cccnc1Cl` (stereo not shown) [Compound 1606], the “Log P” value was 3.9^[a].

As for `CCOC(=O)C(C#N)=C(NC(C)C(C)C)c1nc(SC)ncc1Br` (stereo not shown) [Compound 972], the “Log P” value is 4.26^[a].

In the case of `CCOC(=O)C(C#N)=C(NCc1ccccn1)c1cn(C)nc1C(F)(F)F` [Compound 139], the lipophilicity (Log P) is 2.36^[a].

`CCOC(=O)C(C#N)=C(NC(C)CC)c1nc(Cl)ccc1Cl` (racemic) [Compound 837]: the “Log P” value was 3.67^[a].

Regarding `CCOC(=O)C(C#N)=C(NC(C)c1nccs1)c1cccnc1C(F)(F)F` (racemic) [Compound 232], the “Log P” value is 2.9^[a].

With `CCOC(=O)C(C#N)=C(NC(C)C(C)C)c1ncc(C(F)(F)F)cc1Cl` (stereo not shown) [Compound 935], the “Log P” value is 4.29^[a].

For the molecule `CCOC(=O)C(C#N)=C(NC(C)c1cccc(Cl)c1)c1cn(C)nc1C(F)F` (racemic) [Compound 554], the “Log P” value was 3.55^[a].

Consider `CCOC(=O)C(C#N)=C(NC(C)C(C)C)c1ccnc(C)c1F` (stereo not shown) [Compound 1317], for which the “Log P” value was 3.31^[a].

On to `C=CCNC(=O)C(C#N)=C(NC(C)c1nccs1)c1cn(C)nc1C(F)F` (racemic) [Compound 1292], for which the “Log P” value was 2.2^[a].

Consider `CCSC(=O)C(C#N)=C(NC(C)C(C)C)c1cccnc1Cl` (stereo not shown) [Compound 1474], for which the “Log P” value was 3.87^[a].

Turning to `COC(=O)C(C#N)=C(NCc1nccs1)c1sc(C)nc1C(F)(F)F` [Compound 132], the “Log P” value is 2.33^[a].

On to `COC(=O)C(C#N)=C(NC1CCCC(C(F)(F)F)C1)c1cccnc1Cl` (stereo not shown) [Compound 1069], for which the “Log P” value is 3.09^[a].

`CCOC(=O)C(C#N)=C(NC(C)COc1c(C)cccc1C)c1cn(C)nc1C(F)F` (stereo not shown) [Compound 684]: the “Log P” value was 3.96^[a].

For the molecule `CCOC(=O)C(C#N)=C(NC(C)Cc1c[nH]c2ccccc12)c1c(C)nn(C)c1F` (racemic) [Compound 46], the “Log P” value was 3.07^[a].

In the case of `CCOC(=O)C(C#N)=C(NC(C)c1cscn1)c1cccnc1Cl` (racemic) [Compound 275], the “Log P” value is 2.4^[a].

In the case of `CCOC(=O)C(C#N)=C(NC(CC)CC#N)c1cccnc1Cl` (stereo not shown) [Compound 1359], the “Log P” value is 2.51^[a].

As for `CCOC(=O)C(C#N)=C(NC(C)C1CCC1)c1cc(Cl)sc1Cl` (stereo not shown) [Compound 1589], the “Log P” value is 5.03^[a].

In the case of `CCOC(=O)C(C#N)=C(Nc1ccccc1SC)c1c(C)nn(C)c1F` [Compound 354], the “Log P” value is 3.21^[a].

For `CCOC(=O)C(C#N)=C(Nc1ccc(OC)cc1)c1sccc1C(F)(F)F` [Compound 483], the “Log P” value was 3.62^[a].

Consider `CCONC(=O)C(C#N)=C(NC(C)c1nccs1)c1cccnc1Cl` (stereo not shown) [Compound 1598], for which the “Log P” value is 1.8^[a].

On to `CCOC(=O)C(C#N)=C(Nc1ccccc1SC)c1cn(C)nc1C(C)F` (racemic) [Compound 521], for which the “Log P” value was 3.15^[a].

As to `COC(=O)C(C#N)=C(NC(C)C1(Cl)CC1)c1cccnc1Cl` (stereo not shown) [Compound 768], the “Log P” value was 2.72^[a].

Regarding `CCOC(=O)C(C#N)=C(Nc1ccc2ncsc2c1)c1cn(C)nc1C(F)F` [Compound 473], the log partition coefficient (Log P) is 2.44^[a].

As to `CCOC(=O)C(C#N)=C(NC(C)C1CCC1)c1cn(C)nc1C(F)F` (stereo not shown) [Compound 1133], the “Log P” value is 3.33^[a].

Staying with this data set, now noted: pH 7.5.
Regarding `CCOC(=O)C(C#N)=C(NC(C)c1ccccn1)c1ccc(C)nc1Cl` (stereo not shown) [Compound 1380], the “Log P” value is on record as 2.67.

`CCOC(=O)C(C#N)=C(NC(C)C(C)C)c1cccnc1C(C)=NO` (stereo not shown) [Compound 985]: the “Log P” value was 2.67.

For `C=Cc1ncccc1C(NC(C)C(C)C)=C(C#N)C(=O)OCC` (stereo not shown) [Compound 976], the “Log P” value turned out to be 3.26.

Take `CCOC(=O)C(C#N)=C(NC(C)CSC)c1cccnc1OC` (stereo not shown) [Compound 687]: the “Log P” value stood at 2.95.

On to `CC(C)C(C)NC(=C(C#N)C(=O)NC1COC1)c1cccnc1Cl` (stereo not shown) [Compound 1455], for which the “Log P” value is recorded as 2.26.

On to `COC(=O)C(C#N)=C(Nc1cccc(SC)c1)c1cccnc1Cl` [Compound 339], for which the “Log P” value stood at 2.83.

Regarding `CCOC(=O)C(C#N)=C(NC(C)COS(C)(=O)=O)c1cccnc1Cl` (stereo not shown) [Compound 1107], the “Log P” value turned out to be 2.17.
